# How the values were obtained:
# [1] = biological target: calmodulin insensitive cyclic GMP phosphodiesterase (Homo sapiens, UniProt O76074); experiment: Phosphodiesterase activity: inhibition of calmodulin insensitive cyclic GMP phosphodiesterase; assay type: biochemical; conditions: procedure described in European Patent Application No. 293063; range given for the listed Examples together; read-out: IC50 (concentration of inhibitor required for 50% inhibition of enzyme activity)
# Experimental: The activity of the compounds of the present invention as inhibitors of a calmodulin insensitive cyclic GMP phosphodiesterase was measured using the procedure described in European Patent Application No. 293063. […] The compounds of the present invention have the advantage that they are selective in not inhibiting cyclic AMP phosphodiesterase (type III).
# [2] = tested on: U46619-induced bronchoconstriction; experiment: Bronchodilatation in vivo: inhibition of U46619-induced bronchoconstriction in anaesthetised guinea-pigs; set-up: species or system guinea-pig (male, Dunkin Hartley); conditions: Cavia porcellus, iv, U46619 infused i.v. 2.5 nmol/min, compound i.v. bolus, peak inhibition, read-out: BD50 (dose required to reduce the U46619-induced bronchoconstriction by 50%)
# Experimental: Male guinea-pigs of the Dunkin Hartley strain (500-600 g) were anaesthetised with Sagatal (pentobarbital sodium) (60 mg/kg). Airway resistance was measured using a modification of the classical Konzett-Rossler technique (J. Pharm. Methods, 13, 309-315, 1985). U46619 (9,11-methanoepoxy-pGH2) was infused i.v. at a rate of 2.5 nmol/min, this produced a steady state of bronchoconstriction (approximately 120% increase from basal airway resistance). The compound under test was administered by i.v. bolus injection, and the subsequent peak inhibition of bronchoconstriction recorded.
# The dose of compound required to reduce the U46619-induced bronchoconstriction by 50% is given as the BD50.
# [3] = tested on: hindquarter blood flow / vascular resistance; experiment: Vasodilatation in vivo: hindquarter blood flow in anaesthetised rats; set-up: species or system rat (male Wistar); conditions: Rattus norvegicus, iv, bolus i.v., from dose response curves, read-out: EDHQ50 (dose required to produce a 50% increase in hindquarter blood flow)
# Experimental: Male Wistar rats (300 g) were anaesthetised with a sodium 5-ethyl-5-(1-methylpropyl)-2-thiobarbiturate/sodium pentobarbitone mixture i.p. (62.5 and 22.5 mg/kg respectively). The trachea was cannulated and the rats breathed spontaneously air enriched with O2 (5 ml/min). Blood pressure was recorded from a carotid artery and a jugular vein was cannulated for the administration of compounds. The temperature of the animal was maintained at 37° C. by the use of an electric blanket. […] The perfusion circuit was primed with 5% bovine serum albumin dissolved in 0.9% sodium chloride solution, pH adjusted to 7.4. Initially the pump rate was set between 10 and 15 ml/min to match the hind quarter perfusion pressure to that of the systemic circulation. Once set, the pressure remained unaltered for the rest of the experiment. A change in the speed of the pump (equivalent to hindquarter blood flow) was used to assess the changes in hindquarter vascular resistance.
# All compounds were administered as a bolus i.v. and from the dose response curves the dose required to produce a 50% increase in hindquarter blood flow (EDHQ50) was determined in μmoles/kg.
# [4] = tested on: ovalbumen-induced bronchoconstrictor response; experiment: Anti-allergic activity: ovalbumen-induced bronchoconstriction in sensitised guinea-pigs; assay type: in vivo, guinea-pig (male, Duncan Hartley); conditions: 11 μmol/kg i.v. bolus; 30 minutes following drug administration; ovalbumen 1 mg/kg i.v. challenge; n = 6
# Experimental: Male Duncan Hartley guinea-pigs (250-300 g) were sensitised to ovalbumen by i.p. injection of 2 ml of 50 mg.ml^-1 i.p. and 0.2 ml s.c. Three weeks later they were anaesthetised with 60 mg.kg^-1 sodium pentabarbitone. The trachea was cannulated and the animal respired at a rate of 40 breaths per minute and at an initial tracheal inflation pressure of 16 mmHg. Tracheal inflation pressure was measured by a transducer connected to a side arm of the respiration circuit The carotid artery was cannulated for the measurement of blood pressure and the signal was used to trigger an instantaneous rate meter. A jugular vein was cannulated for the administration of drug and allergen. After surgery the animals were allowed to stabilise and the drug was administered i.v. as a bolus. Following this, ovalbumen 1 mg.kg^-1 was injected i.v. as the antigen challenge either 2, 15 or 30 minutes following drug treatment and the peak bronchoconstrictor response recorded. For the control group ovalbumen only was given. One ovalbumen challenge per guinea-pig was used and n = 6 for each time point. The percentage increase in tracheal inflation pressure was calculated.
SMILES,IC50 [1],ED50 [2],ED (50% increase) [3],inhibition of the control bronchoconstrictor response [4]
"CCOc1ccccc1-c1ccc(C#N)c(=O)[nH]1 [Example 9, 3-Cyano-6-(2-ethoxyphenyl)-2(1H)-pyridinone]",1.7 to 30 µM,–,–,–
"CCCOc1ccccc1-c1ccc(C(=O)OC)c(=O)[nH]1 [Example 4, Methyl 6-(2-propoxyphenyl)-1,2-dihydro-2-oxopyridine-3-carboxylate]",1.7 to 30 µM,–,–,–
"CCCOc1ccccc1-c1[nH]c(=O)c(C#N)cc1C [Example 12, 3-Cyano-5-methyl-6-(2-propoxyphenyl)-2(1H)-pyridinone]",1.7 to 30 µM,–,–,–
"CCCOc1ccccc1-c1ccc([N+](=O)[O-])c(=O)[nH]1 [Example 7, 3-Nitro-6-(2-propoxyphenyl)-2(1H)-pyridinone]",1.7 to 30 µM,7.7 µmol/kg,–,–
"CCCOc1ccccc1-c1ccc(C#N)c(=O)[nH]1 [Example 1, 3-Cyano-6-(2-propoxyphenyl)-2(1H)-pyridinone]",1.7 to 30 µM,10 µmol/kg,11.5 µmol/kg,–
"CCCOc1ccccc1-c1cc(C)c(C#N)c(=O)[nH]1 [Example 11, 3-Cyano-4-methyl-6-(2-propoxyphenyl)-2(1H)-pyridinone]",1.7 to 30 µM,2.3 µmol/kg,–,–
"CCCOc1ccccc1-c1ccc(C(N)=O)c(=O)[nH]1 [Example 2, 6-(2-Propoxyphenyl)-1,2-dihydro-2-oxopyridine-3-carboxamide]",1.7 to 30 µM,1.1 µmol/kg,14 µmol/kg,44%
"CCCOc1ccccc1-c1ccc(C#N)c(=S)[nH]1 [Example 14, 3-Cyano-6-(2-propoxyphenyl)-2(1H)-pyridinethione]",1.7 to 30 µM,–,–,–
"CCCOc1ccccc1-c1cccc(=O)[nH]1 [Example 6, 6-(2-Propoxyphenyl)-2(1H)-pyridinone]",1.7 to 30 µM,–,–,–
"CCCOc1ccccc1-c1ccc(C(=O)O)c(=O)[nH]1 [Example 3, 6-(2-Propoxyphenyl)-1,2-dihydro-2-oxopyridine-3-carboxylic acid]",–,10.6 µmol/kg,–,–

# Source: patent US5254571A, “Chemical compounds” (Smith Kline & French Laboratories Ltd., priority 1988, dated 1993)
